The numbers were not newly measured in patent US10112976B2, “Process for the production of D-arginyl-2,6-dimethyl-L-tyrosyl-L-lysyl-L-phenylalaninamide” (Flamma S.P.A., priority 2014, dated 2018), which cites them from elsewhere.

SMILES strings stand for the structures. Non-standard residues stand in square brackets, D forms with d. Residues, ends and D or L forms follow the SMILES beside them. Dmt = Cc1cc(O)cc(C)c1C[C@H](N)C(=O)O

One data set deals with N2A neuronal cell line. The note with it: <1 nM; N2A cells.
The subject of data set [1] is inner mitochondrial membrane.
Data set [2] deals with rats with unilateral ureteral obstruction. The settings on record: intraperitoneal 1 and 3 mg/kg, 1 day prior to obstruction and every day for 14 days.
The test system of data set [3] is G93A mouse model of amyotrophic lateral sclerosis. The settings on record: 5 mg/kg/day i.p. starting at 30 days of age.
In data set [4] the test system is SH—SY5Y neuronal cell line. The settings on record: <1 nM; SH—SY5Y cells.
A further data set deals with mouse pancreatic islets. The note with it: 3 mg/kg i.p. qd for 2 weeks.
The next data set addresses mu-opioid receptor (Homo sapiens, UniProt P35372). The note with it: as stated for WO 2013/086020, WO 2004/070054, WO 2005/072295.

mu-opioid receptor, sequence (P35372 whole entry): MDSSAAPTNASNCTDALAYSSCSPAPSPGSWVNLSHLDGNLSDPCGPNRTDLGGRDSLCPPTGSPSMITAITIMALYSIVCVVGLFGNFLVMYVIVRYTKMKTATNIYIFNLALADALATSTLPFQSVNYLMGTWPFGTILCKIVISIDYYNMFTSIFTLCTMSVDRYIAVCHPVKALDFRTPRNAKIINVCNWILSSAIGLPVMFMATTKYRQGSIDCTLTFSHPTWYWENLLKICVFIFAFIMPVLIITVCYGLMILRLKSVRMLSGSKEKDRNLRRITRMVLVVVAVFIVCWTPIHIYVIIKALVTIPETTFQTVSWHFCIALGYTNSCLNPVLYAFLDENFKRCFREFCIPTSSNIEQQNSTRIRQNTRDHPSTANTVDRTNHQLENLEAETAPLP

As to `Cc1cc(O)cc(C)c1C[C@H](NC(=O)[C@H](N)CCCNC(=N)N)C(=O)N[C@@H](CCCCN)C(=O)N[C@@H](Cc1ccccc1)C(N)=O` [D-Arginyl-2,6-dimethyl-L-tyrosyl-L-lysyl-L-phenylalaninamide] (H-[dR][Dmt]KF-NH2), in the data set with N2A neuronal cell line, the “intracellular reactive oxygen species” value is given as “significantly reduced”, the mitochondrial potential result is reported as “increased” and the tBHP-induced apoptosis result is reported as “prevented”. Further, the antioxidant activity result in data set [1] is “showed antioxidant activity”. In data set [2], the interstitial fibrosis entry is on record as “significantly decreased”, the macrophage infiltration result is given as “significantly decreased” and the tubular damage result is listed as “significantly decreased”. In addition, the disease onset entry in data set [3] is on record as “significant delay”. Moreover, in data set [4], the “intracellular reactive oxygen species” value is “significantly reduced”, the mitochondrial potential result is on record as “increased” and the tBHP-induced apoptosis result is reported as “prevented”. For the same compound, in the data set on mouse pancreatic islets, the “apoptosis in pancreatic islets caused by streptozotocin” value is reported as “prevented” and the “insulin reduction in pancreatic islets caused by streptozotocin” value is on record as “prevented”. In addition, the “mu-opioid receptor agonist activity” value on mu-opioid receptor is “does not have mu-opioid receptor agonist activity”.
